In patent US7795213B2 (POSCO, priority 2002, dated 2010):

How the values were obtained:
[1] = biological target: T1, immobilized Aβ aggregate (Homo sapiens, UniProt P05067); test: In vitro VEGF trapping on immobilized Aβ aggregate; format: binding; conditions: 50 μM Aβ aggregated 24 hours and dried on well; radiolabeled VEGF; no inhibitor
T1 construct: Aβ (Aβ) is the major component of senile plaques and is derived from the amyloid precursor protein by proteolytic cleavage
Protocol: The system is simulating VEGF trapping on Aβ plaques under in vitro condition. In the in vitro assay system, 50 μM of Aβ was aggregated at 37° C. for 24 hours and immobilized on the bottom of a well by drying under air for overnight, and then, VEGF labeled with a radioisotope was added to the well, to form VEGF-Aβ binding. After removing unbound VEGF, bound VEGF was determined by measuring radioactivity. […] If certain chemical has inhibitory activity against VEGF-Aβ binding, then the chemical will decrease the amount of VEGF trapped on immobilized Aβ aggregate.

[2] = biological target: T2, Aβ1-40 (Homo sapiens, UniProt P05067); test: 125I-VEGF competition binding to immobilized Aβ peptide in microtiter wells; conditions: read-out: dissociation constant (KD) of VEGF for Aβ; immobilized Aβ1-40; 50 pM 125I-VEGF with increasing unlabeled VEGF; KD=IC50-[125I-VEGF]
T2 construct: Aβ1-40, Aβ1-42, and Aβ40-1 (BACHEM, Bubendorf, Switzerland) were immobilized on a CM5 sensor chip; purchased BACHEM

[3] = system: Aβ40-1
Protocol: (§1) Aβ1-40, Aβ1-42, and Aβ40-1 (BACHEM, Bubendorf, Switzerland) were immobilized on a CM5 sensor chip (BIAcore AB, Uppsala, Sweden) with an amine coupling kit. Alpha2-macroglobulin, alpha1-antichymotrypsin, serum amyloid P component, apolipoprotein E4, and VEGF165 (100 nM) were allowed to bind to the immobilized Aβ at a flow rate of 10 μl/min and sensorgrams were recorded in real time.

[4] = biological target: T2, Aβ1-40; test: Surface plasmon resonance binding to Aβ peptide on CM5 sensor chip; conditions: 100 nM protein; versus alpha2-macroglobulin, alpha1-antichymotrypsin, serum amyloid P component, apolipoprotein E4
Protocol: as §1

[5] = biological target: T3, Aβ1-42 (Homo sapiens, UniProt P05067); test: as above; conditions: 100 nM protein; versus alpha2-macroglobulin, alpha1-antichymotrypsin, serum amyloid P component, apolipoprotein E4
T3 construct: Aβ1-40, Aβ1-42, and Aβ40-1 (BACHEM, Bubendorf, Switzerland) were immobilized on a CM5 sensor chip; purchased BACHEM
Protocol: as §1

[6] = Keyt et al., J. Biol. Chem. 1996; cited from earlier work
[7] = biological target: T4, Aβ (Homo sapiens, UniProt P05067); test: Binding of growth factors to Aβ; conditions: among NGF, bFGF, PDGF, VEGF and midkine
T4 construct: Aβ (Aβ) is the major component of senile plaques and is derived from the amyloid precursor protein by proteolytic cleavage

[8] = biological target: T5, pre-aggregated Aβ1-40 (Homo sapiens, UniProt P05067); test: Binding of 125I-VEGF to pre-aggregated Aβ, immediate centrifugation; conditions: 50 μM Aβ preincubated for 2 days, 1 nM 125I-VEGF, immediately centrifuged
T5 construct: Aβ1-40, Aβ1-42, and Aβ40-1 (BACHEM, Bubendorf, Switzerland) were immobilized on a CM5 sensor chip; purchased BACHEM
Protocol: (§2) The aggregation of Aβ1-40 was determined as described with some modifications (Chang et al., Brain Res Brain Res Protoc 2000;6(1-2):6-12). After a two day incubation of Aβ1-40 (100 μM) with FITC-conjugated Aβ1-40 (1 μM) in 50 mM MES, pH 5.8, at 37° C., the mixture was centrifuged, and fluorescence in the pellet was measured. […] Then the mixtures were centrifuged and radioactivity in pellet was determined in a gamma-counter. […] The radioactivity in the pellet was determined.

[9] = system: Aβ40-1; conditions: 100 μM Aβ40-1, 1 nM 125I-VEGF165, 37° C., 2 days; P=0.0076
Protocol: as §2

[10] = biological target: T3, Aβ1-42; test: Thioflavin T assay of Aβ aggregation; format: biochemical; conditions: 50 μM Aβ1-42, 37° C., 24 hours; VEGF or GST-HBD at various concentrations
Protocol: 10 μM of thioflavin T was added to the mixture and sufficiently mixed. Then, the fluorescence of the mixture was measured at Ex=444 nm and Em=485 nm, and then, compared with that of control of Aβ incubated alone, to determine the affection on aggregation of Aβ.
50 μM Aβ was incubated at 37° C. for 24 hours together with triamterene of 0 μM, 4 μM, 20 μM or 100 μM, respectively, to generate aggregation of Aβ. Then, the degree of aggregation was determined by the thioflavin T assay as illustrated in Example 11.

[11] = biological target: T2, Aβ1-40; test: Co-aggregation assay of 125I-VEGF165 with Aβ, radioactivity in pellet; format: binding; conditions: 100 μM Aβ1-40, 1 nM 125I-VEGF165, 37° C., 2 days; approximately 60% of Aβ alone in pellet
Protocol: as §2

[12] = system: PC12 cells; test: DCF fluorescence, generation of reactive oxygen species by Aβ; format: cell-based; conditions: PC12 cells 3 hours
Protocol: 5 μM VEGF165 or 5 μM GST-HBD and 5 μM Aβ1-42 were mixed and incubated at 37° C. for 24 hours. The mixture was added to PC12 cells (6×10^4, cells/well, kindly provided by Dr. Pann-Ghill Suh), and then left for reaction at 37° C. for 3 hours. Then, 100 μM of DCF solution was added to the resulted mixture, reacted for 30 minutes, and then washed with PBS (phosphate-buffered saline). The obtained cells were observed through a fluorescent microscope, and DCF fluorescence was measured, to calculate the level of generation of the reactive oxygen species.

[13] = biological target: T2, Aβ1-40; test: Effect of VEGF on the aggregation rate of Aβ, FITC-Aβ1-40 fluorescence in pellet; format: biochemical; conditions: VEGF 1 μM; 50 μM and 100 μM Aβ1-40; 37° C.
[14] = biological target: T6, Aβ/VEGF co-aggregate (Homo sapiens, UniProt P05067); test: Dissociation assay of VEGF from Aβ/VEGF co-aggregate; format: binding; conditions: after 3 days; 50 mM MES, pH 5.8
T6 construct: purchased BACHEM (Aβ peptides); Amersham Pharmacia Biotech (125I-VEGF)
Protocol: The radioactivity in the supernate was determined. […] The mixtures were separated by SDS-PAGE (10%) and autoradiographed.

Chain of Aβ40-1 (as listed by the source): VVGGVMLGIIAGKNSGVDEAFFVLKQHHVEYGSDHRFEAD

With VEGF the “VEGF trapping into Aβ, share of VEGF added” value [1] was “about 70%”, the Kd [2] was roughly 0.05 nM and the “binding to Aβ40-1 (reverse peptide)” value [3] was “did not bind”. The “binding to immobilized Aβ1-40 (surface plasmon resonance)” value [4] was “much more strongly than other molecules that are known to bind to Aβs”, the “binding to immobilized Aβ1-42 (surface plasmon resonance)” value [5] was “much more strongly than other molecules that are known to bind to Aβs” and the “bioactivity relative to VEGF121” value [6] was 100 fold. For the same substance, the “binding of growth factor to Aβ” value [7] was “bound to A”, the “binding of VEGF to pre-aggregated Aβ (pelleted by centrifugation)” value [8] was “bound to pre-aggregated Aβ” and the “sedimentation of VEGF in presence of Aβ40-1” value [9] was “did not cause extensive sedimentation of VEGF”. The “inhibition of aggregation of Aβ (thioflavin T)” value [10] was “inhibit aggregation of Aβ depending on the concentration”, the “proportion of 125I-VEGF in the pellet after incubation with Aβ1-40” value [11] was “About the same proportion” and the “generation of the reactive oxygen species, treatment alone” value ([12]; 5 μM VEGF165 or 5 μM GST-HBD alone) was “no effect on the generation of the reactive oxygen species”. The “generation of the reactive oxygen species by Aβ, treatment together with Aβ” value ([12]; 5 μM VEGF165 or 5 μM GST-HBD with 5 μM Aβ1-42) was “inhibitory effect on the generation of the reactive oxygen species by Aβ”, the “influence of VEGF on the aggregation of Aβ1-40 (time course)” value [13] was “no significant influence” and the “VEGF released from the Aβ/VEGF complex” value [14] was “less than 1.5%”.
